# Results: US6759228B2, “Alkaline protease” (Kao Corporation, priority 1997, dated 2004)
# Like-named read-outs stand apart in the source and are kept apart here. *1 amine or outer side, *2 acyl side, *3 side chain or, on linkers, in order; H or OH if unused. Where a SMILES comes first, the peptide text is derived from it. CO = O=C([*:1])[*:2]
# Tests used:
# KP1790 protease [1] = assay type: biochemical, Bacillus sp. KSM-KP1790; settings: pH 7
# KP9860 protease [2] = assay: Effects of inhibitors: residual activity, casein method; assay type: biochemical, Bacillus sp. KSM-KP9860
# KP43 protease [3] = assay type: biochemical, Bacillus sp. KSM-KP43; settings: pH 7
# KP43 protease [4] = assay type: biochemical, Bacillus sp. KSM-KP43
# [5] = test system: 3 kinds of proteases (KP43, KP1790, KP9860); assay: Effects of metal ions, summary for the 3 kinds of proteases; assay type: biochemical, Bacillus sp.; settings: 1 mmol/L metal salt, 20 mmol/L boric acid buffer (pH 10), 30° C., 20 minutes
# KP1790 protease [6] = assay: Effects of metal ions: residual activity, casein method; assay type: biochemical, Bacillus sp. KSM-KP1790
# KP9860 protease [7] = assay type: biochemical, Bacillus sp. KSM-KP9860
# [8] = test system: all three kinds of proteases (KP43, KP1790, KP9860); assay type: biochemical, Bacillus sp.; settings: pH 7
# KP43 protease [9] = assay: Effects of surface active agents: residual activity, casein method; assay type: biochemical, Bacillus sp. KSM-KP43; settings: 1% surfactant, 100 mM borate buffer (pH 10.0), 40° C., 4 hours; no treatment = 100%
# Experimental: (§1) After 1 mL of 50 mmol/L of various buffer solutions containing 1% (w/v) Casein (Hammerstein: product of Merck Inc.) was maintained at 40° C. for 5 minutes, 0.1 mL of an enzyme solution was added to the solution, followed by incubation at 40° C. for 10 minutes. 2 mL of a TCA solution (0.11 mol/L trichloroacetic acid: 0.22 mol/L sodium acetate: 0.33 mol/L acetic acid) was added to stop the reaction and the mixture was left to stand at room temperature for 10 minutes. Subsequently, acid-denatured protein was filtered (No. 2 filter paper: product of Whattmann). To 0.5 mL of the filtrate, 2.5 mL of alkaline copper reagent (1% (w/v) sodium potassium tartrate: 1% (w/v) copper sulfate: 2% (w/v) sodium carbonate, 0.1 mol/L sodium hydroxide=1:1:100 (v/v)) was added, and after the solution was maintained at 30° C. for 10 minutes, 0.25 mL of diluted phenol reagent (phenol reagent (product of Kanto Chemical) diluted two-fold with deionized water) was added, and after being maintained at 30° C. for 30 minutes, the solution was subjected to an absorbance measurement at 660 nm. The following solution was used as a blank: to the above-described system of enzyme reaction, a reaction termination solution was mixed and then the enzyme solution was added.
# (§2) An enzyme solution (7.0×10^−4 mP. U.) was added to 100 mmol/L boric acid buffer solution containing dissolved surfactants in an amount of 1%, and the resultant solution was incubated at 40° C. for 4 hours. The solution was diluted 20-fold with 50 mmol/L boric acid buffer solution (pH 10.0), and residual activity was measured using casein as a substrate.
# (§3) Each protease was treated with a variety of 1% surface active agent at 40° C. for 4 hours in […], and residual activity was measured. […] Accordingly, the enzymes are considered to be useful as a detergent component containing surfactants.
# KP9860 protease [10] = assay: as above; assay type: biochemical, Bacillus sp. KSM-KP9860; settings: 1% surfactant, 100 mM borate buffer (pH 10.0), 40° C., 4 hours; no treatment = 100%
# Experimental: as §1, §2, §3
# KP1790 protease [11] = assay: as above; assay type: biochemical, Bacillus sp. KSM-KP1790; settings: 1% surfactant, 100 mM borate buffer (pH 10.0), 40° C., 4 hours; no treatment = 100%
# [12] = inhibitor 5 mM, 10 mmol/L phosphoric acid buffer (pH 7.0), 30° C., 20 minutes, no inhibitor = 100%
# [13] = 1 mM metal salt, 20 mM borate buffer (pH 10.0), 30° C., 20 minutes, no metal salt = 100%
# [14] = inhibitor 0.1 mM, 10 mmol/L phosphoric acid buffer (pH 7.0), 30° C., 20 minutes, no inhibitor = 100%
molecule,measurement,setting,value
"O[C@H](CS)[C@H](O)CS (racemic) [DTT, dithiothreitol]",Residual activity (%) KP1790,KP1790 protease [1],102%
same,Residual activity (%) KP9860,KP9860 protease [2]; [12],105%
same,Residual activity (%) KP43,KP43 protease [3],104%
"O=[N+]([O-])[O-].[Ag+] [AgNO3, silver nitrate]",Residual activity (%) KP43,KP43 protease [4]; [13],66%
same,effect of metal salt on activity,[5],inhibited
same,Residual activity (%) KP1790,KP1790 protease [6]; [13],70%
same,Residual activity (%) KP9860,KP9860 protease [7]; [13],45%
CC(C)[C@H](NC(=O)[C@H](CCCNC(=N)N)NC(=O)N[C@@H](Cc1ccccc1)C(=O)O)C(=O)N[C@H](C=O)CCCNC(=N)N [Antipine] ({Phe-CO}-Arg-Val-Arg-aldehyde),Residual activity (%) KP1790,KP1790 protease [1],99%
same,Residual activity (%) KP9860,KP9860 protease [2]; [14],97%
same,Residual activity (%) KP43,KP43 protease [3],103%
same,effect of inhibitor on activity,[8],not found
"[Ca+2].[Cl-].[Cl-] [CaCl2, calcium chloride]",Residual activity (%) KP43,KP43 protease [4]; pH 10,97%
same,Residual activity (%) KP1790,KP1790 protease [6]; pH 10,95%
same,Residual activity (%) KP9860,KP9860 protease [7]; pH 10,101%
CC(C)C[C@H](NC(=O)[C@@H](NC(=O)N[C@@H](Cc1ccccc1)C(=O)O)[C@@H]1CCN=C(N)N1)C(=O)N[C@H](C=O)Cc1ccccc1 [Chymostatin],Residual activity (%) KP1790,KP1790 protease [1],87%
same,Residual activity (%) KP9860,KP9860 protease [2]; pH 7,80%
same,Residual activity (%) KP43,KP43 protease [3],87%
same,effect of inhibitor on activity,[8],inhibited
[Cl][Cu][Cl] [CuCl2],Residual activity (%) KP43,KP43 protease [4]; [13],91%
same,Residual activity (%) KP1790,KP1790 protease [6]; [13],96%
same,Residual activity (%) KP9860,KP9860 protease [7]; [13],94%
CC(C)C[C@H](NC(=O)[C@H]1O[C@@H]1C(=O)O)C(=O)NCCCCN=C(N)N [E-64],Residual activity (%) KP1790,KP1790 protease [1],99%
same,Residual activity (%) KP9860,KP9860 protease [2]; pH 7,103%
same,Residual activity (%) KP43,KP43 protease [3],104%
"O=C(O)CN(CCN(CC(=O)O)CC(=O)O)CC(=O)O [EDTA, ethylenediaminetetraacetic acid]",Residual activity (%) KP1790,KP1790 protease [1],97%
same,Residual activity (%) KP9860,KP9860 protease [2]; [12],101%
same,Residual activity (%) KP43,KP43 protease [3],110%
"O=C(O)CN(CCOCCOCCN(CC(=O)O)CC(=O)O)CC(=O)O [EGTA, ethyleneglycoltetraacetic acid]",Residual activity (%) KP1790,KP1790 protease [1],91%
same,Residual activity (%) KP9860,KP9860 protease [2]; [12],90%
same,Residual activity (%) KP43,KP43 protease [3],92%
CC(C)C[C@H](NC(=O)N[C@H](C(=O)N[C@@H](CCC(N)=O)C(=O)N[C@@H](C)C=O)[C@@H]1CCNC(=N)N1)C(=O)O [Elastatinal],Residual activity (%) KP1790,KP1790 protease [1],102%
same,Residual activity (%) KP9860,KP9860 protease [2]; [14],102%
same,Residual activity (%) KP43,KP43 protease [3],99%
[Cl][Fe]([Cl])[Cl] [FeCl3],Residual activity (%) KP43,KP43 protease [4]; [13],93%
same,Residual activity (%) KP1790,KP1790 protease [6]; [13],113%
same,Residual activity (%) KP9860,KP9860 protease [7]; [13],96%
"[Cl][Hg][Cl] [HgCl2, mercury chloride]",Residual activity (%) KP43,KP43 protease [4]; [13],38%
same,effect of metal salt on activity,[5],inhibited
same,Residual activity (%) KP1790,KP1790 protease [6]; [13],37%
same,Residual activity (%) KP9860,KP9860 protease [7]; [13],33%
CC(=O)N[C@@H](CC(C)C)C(=O)N[C@@H](CC(C)C)C(=O)N[C@H](C=O)CCCNC(=N)N [Leupeptin],Residual activity (%) KP1790,KP1790 protease [1],101%
same,Residual activity (%) KP9860,KP9860 protease [2]; pH 7,93%
same,Residual activity (%) KP43,KP43 protease [3],102%
same,effect of inhibitor on activity,[8],not found
[Cl-].[Cl-].[Mg+2] [MgCl2],Residual activity (%) KP43,KP43 protease [4]; [13],92%
same,Residual activity (%) KP1790,KP1790 protease [6]; [13],103%
same,Residual activity (%) KP9860,KP9860 protease [7]; [13],100%
"CCN1C(=O)C=CC1=O [NEM, N-ethylmaleimide]",Residual activity (%) KP1790,KP1790 protease [1],100%
same,Residual activity (%) KP9860,KP9860 protease [2]; pH 7,100%
same,Residual activity (%) KP43,KP43 protease [3],97%
"CCCCCCCCCCCCOS(=O)(=O)[O-].[Na+] [Na dodecyl sulfate (SDS), Na dodecyl sulfate]",Residual activity KP43,KP43 protease [9],104%
same,Residual activity KP9860,KP9860 protease [10],103%
same,Residual activity KP1790,KP1790 protease [11],97%
[Cl][Ni][Cl] [NiCl2],Residual activity (%) KP43,KP43 protease [4]; [13],92%
same,Residual activity (%) KP1790,KP1790 protease [6]; [13],95%
same,Residual activity (%) KP9860,KP9860 protease [7]; [13],96%
"O=C(O)c1cc[c]([Hg][Cl])cc1 [PCMB, p-chloromercury benzoate]",Residual activity (%) KP1790,KP1790 protease [1],115%
same,Residual activity (%) KP9860,KP9860 protease [2]; pH 7,126%
same,Residual activity (%) KP43,KP43 protease [3],125%
"O=S(=O)(F)Cc1ccccc1 [PMSF, phenylmethanesulfonyl fluoride]",Residual activity (%) KP1790,KP1790 protease [1],0%
same,Residual activity (%) KP9860,KP9860 protease [2]; pH 7,0%
same,Residual activity (%) KP43,KP43 protease [3],0%
same,effect of inhibitor on activity,[8],inhibited
[Cl-].[Cl-].[Zn+2] [ZnCl2],Residual activity (%) KP43,KP43 protease [4]; [13],85%
same,Residual activity (%) KP1790,KP1790 protease [6]; [13],94%
same,Residual activity (%) KP9860,KP9860 protease [7]; [13],91%
c1cnc2c(c1)ccc1cccnc12 [o-Phenanthroline],Residual activity (%) KP1790,KP1790 protease [1],103%
same,Residual activity (%) KP9860,KP9860 protease [2]; [12],100%
same,Residual activity (%) KP43,KP43 protease [3],100%
CoCl2,Residual activity (%) KP43,KP43 protease [4]; pH 10,91%
same,Residual activity (%) KP1790,KP1790 protease [6]; pH 10,101%
same,Residual activity (%) KP9860,KP9860 protease [7]; pH 10,98%
Na alkyl sulfate [Na alkyl sulfate (AS)],Residual activity KP43,KP43 protease [9],113%
same,Residual activity KP9860,KP9860 protease [10],107%
same,Residual activity KP1790,KP1790 protease [11],107%
Na linear alkylbenzenesulfonate [Na linear alkylbenzenesulfonate (LAS)],Residual activity KP43,KP43 protease [9],100%
same,Residual activity KP9860,KP9860 protease [10],100%
same,Residual activity KP1790,KP1790 protease [11],88%
Na polyoxyethylene alkylsulfate [Na polyoxyethylene alkylsulfate (ES)],Residual activity KP43,KP43 protease [9],101%
same,Residual activity KP9860,KP9860 protease [10],104%
same,Residual activity KP1790,KP1790 protease [11],102%
Na α-olefinsulfonate [Na α-olefinsulfonate (AOS)],Residual activity KP43,KP43 protease [9],100%
same,Residual activity KP9860,KP9860 protease [10],100%
same,Residual activity KP1790,KP1790 protease [11],111%
α-Sulfofatty acid ester [α-Sulfofatty acid ester (α-SFE)],Residual activity KP43,KP43 protease [9],112%
same,Residual activity KP9860,KP9860 protease [10],105%
same,Residual activity KP1790,KP1790 protease [11],113%
